Source: PMC11638965, “Leveraging Dual-Ligase Recruitment to Enhance Protein Degradation via a Heterotrivalent Proteolysis Targeting Chimera” (Journal of the American Chemical Society, 2024)
Where two headings read alike, the source gives them in different places.

Legend:
[1] = system: HEK293 cells; test: TMT mass spectrometry proteomics; assay type: cell-based, Human; conditions: 250 nM, 4 h; for proteins significantly depleted/downregulated, proteome-wide: 7276 proteins detected, relative to DMSO
Method: S-Trap micro spin column digestion was performed according to the manufacturer’s protocol. Briefly, HEK293 cells were treated with DMSO, 250 nM neg-cis-AB3067 (95) or 250 nM AB3067 (27) for 4 h; cells were harvested and washed with PBS and spun. Cell pellets were solubilized in 5% SDS, 50 mM triethylammonium bicarbonate, reduced with 100 mM DTT solution and alkylated with iodoacetamide to a final concentration of 40 mM. Aqueous phosphoric acid was added to a final concentration of 1.2%. Protein particulate was formed by adding S-Trap binding buffer [90% aqueous methanol, 100 mM TEAB (pH 7.1)]. The mixture was placed on S-Trap micro 1.7 mL columns and centrifuged at 4000 × g for 10 s. Columns were washed with 150 μL of S-Trap binding buffer five times and centrifuged at 4000 × g for 10 s. Samples were digested with 2 μg of trypsin (Promega) at 37 °C for four h. Peptides were eluted with 40 μL of 50 mM TEAB followed by 40 μL of 0.2% aqueous formic acid, and peptides were finally vacuum-dried. TMT15plex labeling of DMSO, 250 nM neg-cis-AB3067 (95) or 250 nM AB3067 (27) conditions were performed, with five biological replicates for each condition and peptide cleanup was performed according to the manufacturer’s protocol. After checking the labeling efficiency, samples were combined, desalted, and dried under vacuum. TMT samples were fractionated using offline high-pH reverse-phase chromatography. Peptides were separated, concatenated to 22 fractions, dried, and peptides redissolved in 5% formic acid and analyzed by LC–MS.
The raw mass spectrometric data were loaded into MaxQuant. Enzyme specificity was set to that of trypsin/P, allowing for cleavage of N-terminal to proline residues and between aspartic acid and proline residues. Other parameters used were as follows: (i) variable modifications—methionine oxidation, protein N-acetylation; (ii) fixed modifications, cysteine carbamidomethylation; (iii) database: Uniprot; -Human (iv) labels: 15-plex TMT (v) MS/MS tolerance: FTMS- 20 ppm, (vi) minimum peptide length, 7; (vii) maximum missed cleavages, 2; and (viii) and (ix) PSM and Protein false discovery rate, 1%. Reporter ion intensities (corrected) results from MaxQuant were imported into excel for bioinformatic analysis. The normalized corrected reporter ion intensities for each label were used to calculate ratios, and all “Contaminant,″ “Reverse”, and “Only identified by site” proteins were removed from the data. Proteins above or below twofold change [log2(2) = 1], and a nominal p-value less than 0.03 [−log10(0.03) = 1.5] were considered as differentially expressed proteins. The final volcano plot was produced in GraphPad prism 10 version [10.2.2].

[2] = target: T1, VHL (Homo sapiens, UniProt P40337); test: NanoBRET lytic and live cell target engagement assay; assay type: binding
T1 construct: host or cells: HEK293, transient
Method: CRBN (N2910, Promega) and VHL (N2930, Promega) NanoBRET target engagement assays were performed according to manufacturer’s instructions. Transfection complexes were prepared using 1 mL Opti-MEM, 30 μL FuGENE HD, and either 9 μg/mL DDB1 Expression Vector and 1 μg/mL NanoLuc-CRBN fusion vector, or 9 μg/mL Transfection Carrier DNA and 1 μg/mL VHL-NanoLuc fusion vector. Transfection complexes were allowed to form for 20 min at room temperature, then were added to 20 mL of HEK293 cells at density of 200,000 cells/mL. Transfected HEK293 cells were plated in a T75 flask and allowed to express protein overnight. The next day, 85 μL of transfected cells (at 200,000 cells/mL) were replated in white nonbinding 96-well plates for live and lytic target engagement measurements. For live mode, a 100x solution of NanoBRET tracer was prepared using 100% DMSO (50 μM for CRBN live-cell, 100 μM for VHL live-cell). 100x tracer was used to prepare 20× tracer using tracer dilution buffer. PROTACs or test compounds were prepared at 10x final concentrations in Opti-MEM. Five μL of the prepared tracer was then dispensed to each well and the plate was mixed on an orbital shaker at 300 rpm for 15 s. Ten μL of each 10x PROTAC dilution was added to the cells and the plate was mixed again before being incubated at a 37 °C, 5% CO2 incubator for 2 or 5 h (as indicated in each figure). After incubation, a 50 μL of a 3X substrate solution (containing 30 μL NanoBRET Nano-Glo Substrate, 10 μL Extracellular NanoLuc inhibitor, and 4960 μL of Opti-MEM) was added to each well. Plates were incubated for 2–3 min at room temperature, then donor emission (450 nm) and acceptor emission (at 610 nm) values were read using a GloMax Discover. For lytic mode, the following changes were made. 100x tracer concentration for CRBN was 13 μM, 100X tracer concentration for VHL was 25 μM, 75 μL of a 200,000 cell/mL solution was plated in white nonbinding 96-well plates, and 10 μL of a 10x digitonin solution was added immediately after the cells were treated with PROTACs. Plates were incubated in darkness for 5 min after digitonin addition to allow for permeabilization. 50 μL of 3X substrate (30 μL NanoBRET Nano-Glo substrate and 4970 μL Opti-MEM) was added to each well and plates were incubated for 1 min at room temperature before being read on a GloMax Discover as above.

[3] = HEK293 cells with NanoLuc-VHL, VHL fluorescent tracer, live cells 2 h, read-out: IC50 (Live Cell), Target: VHL
[4] = HEK293 cells with NanoLuc-VHL, VHL fluorescent tracer, lysed with digitonin, read-out: IC50 (Lytic Cell), Target: VHL
[5] = displacement of VHL tracer, live cell format, read-out: IC50 VHL, live cell format

T1 sequence (P40337 whole entry): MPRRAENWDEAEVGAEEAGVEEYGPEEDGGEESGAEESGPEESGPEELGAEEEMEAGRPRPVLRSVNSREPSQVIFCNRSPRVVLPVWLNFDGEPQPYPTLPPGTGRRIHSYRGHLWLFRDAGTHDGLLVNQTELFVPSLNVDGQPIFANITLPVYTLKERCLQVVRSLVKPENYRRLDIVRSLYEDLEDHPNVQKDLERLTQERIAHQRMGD

fold stronger binding to VHL with respect to 26, live cell format ([2]; 27 vs 26) [fold]	IC50 [2, 3] [nM]	IC50 [2, 4] [nM]	IC50 [2, 5] [nM]	IC50 ([2]; displacement of VHL tracer, lytic format, read-out: IC50 VHL, lytic format) [nM]	fold weaker at engaging VHL in live cell format than in lytic format ([2]; live vs lytic) [fold]	Structure (SMILES)	proteins significantly depleted/downregulated, proteome-wide [1]	CRBN abundance [1]	EID2 abundance [1]
						Cc1ncsc1-c1ccc([C@H](C)NC(=O)[C@@H]2C[C@H](O)CN2C(=O)[C@@H](NC(=O)COCC(C)(COCCOCCOCCNc2cc3c(cc2F)C(=O)N(C2CCC(=O)N(C)C2=O)C3=O)COCCOCCOCCOC(=O)C[C@@H]2N=C(c3ccc(Cl)cc3)c3c(sc(C)c3C)-n3c(C)nnc32)C(C)(C)C)cc1 (mixture of isomers) [neg-cis-AB3067 (95), (17S)-11-((2-(2-(2-((6-fluoro-2-(1-methyl-2,6-dioxopiperidin-3-yl)-1,3-dioxoisoindolin-5-yl)amino)ethoxy)ethoxy)ethoxy)methyl)-17-((2S,4S)-4-hydroxy-2-(((S)-1-(4-(4-methylthiazol-5-yl)phenyl)ethyl)carbamoyl)pyrrolidine-1-carbonyl)-11,18,18-trimethyl-15-oxo-3,6,9,13-tetraoxa-16-azanonadecyl 2-((S)-4-(4-chlorophenyl)-2,3,9-trimethyl-6H-thieno[3,2-f][1,2,4]triazolo[4,3-a][1,4]diazepin-6-yl)acetate]	no protein was significantly downregulated		
> 4.4	2280	559	> 10000			Cc1ncsc1-c1ccc([C@H](C)NC(=O)[C@@H]2C[C@@H](O)CN2C(=O)[C@@H](NC(=O)COCC(C)(COCCOCCOCCNc2cc3c(cc2F)C(=O)N(C2CCC(=O)NC2=O)C3=O)COCCOCCOCCOC(=O)C[C@@H]2N=C(c3ccc(Cl)cc3)c3c(sc(C)c3C)-n3c(C)nnc32)C(C)(C)C)cc1 (mixture of isomers) [AB3067 (27), (17S)-11-((2-(2-(2-((2-(2,6-dioxopiperidin-3-yl)-6-fluoro-1,3-dioxoisoindolin-5-yl)amino)ethoxy)ethoxy)ethoxy)methyl)-17-((2S,4R)-4-hydroxy-2-(((S)-1-(4-(4-methylthiazol-5-yl)phenyl)ethyl)carbamoyl)pyrrolidine-1-carbonyl)-11,18,18-trimethyl-15-oxo-3,6,9,13-tetraoxa-16-azanonadecyl 2-((S)-4-(4-chlorophenyl)-2,3,9-trimethyl-6H-thieno[3,2-f][1,2,4]triazolo[4,3-a][1,4]diazepin-6-yl)acetate]	all three BET proteins, BRD2, BRD3 and BRD4, were significantly depleted	not significantly depleted	significantly downregulated
	> 10000	1820	2300	1820	> 5.5	Cc1ncsc1-c1ccc(CNC(=O)[C@@H]2C[C@@H](O)CN2C(=O)[C@@H](NC(=O)COCC(C)(COCCOCCOCCNc2cc3c(cc2F)C(=O)N(C2CCC(=O)NC2=O)C3=O)COCCOCCOCCOC(=O)C[C@@H]2N=C(c3ccc(Cl)cc3)c3c(sc(C)c3C)-n3c(C)nnc32)C(C)(C)C)cc1 (mixture of isomers) [AB3063 (26), (17S)-11-((2-(2-(2-((2-(2,6-dioxopiperidin-3-yl)-6-fluoro-1,3-dioxoisoindolin-5-yl)amino)ethoxy)ethoxy)ethoxy)methyl)-17-((2S,4R)-4-hydroxy-2-((4-(4-methylthiazol-5-yl)benzyl)carbamoyl)pyrrolidine-1-carbonyl)-11,18,18-trimethyl-15-oxo-3,6,9,13-tetraoxa-16-azanonadecyl 2-((S)-4-(4-chlorophenyl)-2,3,9-trimethyl-6H-thieno[3,2-f][1,2,4]triazolo[4,3-a][1,4]diazepin-6-yl)acetate]			
